Data from patent EP0428103A2, “Prevention of glycoprotein enveloped virus infectivity by pyridyloxazole-2-ones” (MERRELL DOW PHARMACEUTICALS INC., priority 1989, dated 1991).
Where a name gives a salt, the structure may show the parent alone.

What was measured:
[1] = system: Moloney murine leukemia virus (MoLV); test: in vitro XC plaque assay; type: cell-based; details: mouse SC-1 cells; for Mean No. of Foci: control 84 foci
Description: This assay was performed according to the method of Rowe et al. (Virology, 1970, 42, 1136-39) as previously described by L. Hsu, et al. (J. Virological Methods, 1980, 1, 167-77) and T. L. Bowlin and M. R. Proffitt (J. Interferon Res., 1983, 3(1), 19-31). Mouse SC-1 cells (fibroblast) (10⁵) were seeded into each well of 6-well cluster plates (Costar #3506) in 4 ml Minimum Essential Medium (MEM) with 10% Fetal Calf Serum (FCS). Following an 18 hour incubation period (37°C), Moloney murine leukemia virus (MoLV) was applied at a predetermined titer to give optimal (i.e. countable) numbers of virus plaques. Compounds were added 2 hours prior to addition of the virus. Three days later the culture medium was removed, the SC-1 cell monolayers were exposed to UV irradiation (1800 ergs), and rat XC cells (10⁶) were seeded into each well in 4 ml MEM. Following an additional 3 day incubation (37°C), these cells were fixed with ethyl alcohol (95%) and stained with 0.3% crystal violet. Plaques were then counted under low magnification.

[2] = system: RF strain of HIV-1; test: p24 antigen expression from HIV infected T-lymphocytes; type: cell-based; details: C8166 T cell line; for p24 Antigen: culture fluid after 3 days
Description: Cells (C8166 T cell line) were pretreated with test compounds at appropriate concentrations for 3 hours prior to virus (RF strain of HIV-1) absorption. Low multiplicity of infection was used and virus absorption period was 1 hour at room temperature. the cells were washed X1 in PBS and resuspended in fresh medium containing the appropriate concentrations of test compound. Cells incubated at 37°C and after 3 days culture fluid was assayed for p24 antigen as a measure of viral replication. Because these compounds were tested as the free base, they had to be taken up in DMSO and therefore a series of DMSO virus controls were needed for comparison.

[3] = system: HIV; details: CD4+ cells, Fields, et al., Nature, Vol. 333, 19 May 1988, cited from earlier work

Structure (SMILES)	Mean No. of Foci ([1]; 0.10 µg/ml)	Mean No. of Foci ([1]; 0.25 µg/ml)	Mean No. of Foci ([1]; 0.5 µg/ml)	Mean No. of Foci ([1]; 0.75 µg/ml)	Mean No. of Foci ([1]; 1 µg/ml, compound added 2 hours prior to virus)	inhibition at 0.1 µg/mL ([1]; Murine leukemia virus, SC1, 0.10 µg/ml) [%]	inhibition at 0.25 µg/mL ([1]; Murine leukemia virus, SC1, 0.25 µg/ml) [%]	inhibition at 0.5 µg/mL ([1]; Murine leukemia virus, SC1, 0.5 µg/ml) [%]	inhibition at 0.75 µg/mL ([1]; Murine leukemia virus, SC1, 0.75 µg/ml) [%]	inhibition at 1 µg/mL ([1]; Murine leukemia virus, SC1, 1 µg/ml, compound added 2 hours prior to virus) [%]	p24 Antigen ([2]; 1 µg/ml, DMSO 0.01 %, vehicle control 1027 pg/ml) [pg/mL]	p24 Antigen ([2]; 10 µg/ml, DMSO 0.1 %, vehicle control 2408 pg/ml) [pg/mL]	inhibition at 1 µg/mL ([2]; Human immunodeficiency virus 1, 72 h, 1 µg/ml, DMSO 0.01 %, 3 days) [%]	inhibition at 10 µg/mL ([2]; Human immunodeficiency virus 1, 72 h, 10 µg/ml, DMSO 0.1 %, 3 days) [%]	HIV cell surface binding [3]	viral infectivity ([3]; accumulation of virus particles at the cell surface)
CCCc1[nH]c(=O)oc1-c1ccncc1 [Test Compound, 4-propyl-5-(4-pyridinyl)-2(3H)-oxazolone]	85	67	68	63	33	0	20	19	25	60.7	613	244	41	90		
CC1CNCCN1S(=O)(=O)c1cccc2cnccc12 (stereo not shown) [1,5-isoquinolinesulphonyl-2-methylpiperazine dihydrochloride]															does not interfere	inhibition of viral infectivity
